From patent publication US20140005103A1, “SULFONAMIDE DERIVATIVES AND METHODS OF USE THEREOF FOR IMPROVING THE PHARMACOKINETICS OF A DRUG” (Merck, Sharp & Dohme Corp., priority 2012, published 2014)

Legend:
CYP3A4 = CYP3A4 (Homo sapiens, UniProt P08684); test: IC50 vs CYP3A by inhibition of lopinavir metabolism in human liver microsomes; assay type: biochemical; settings: pH 7.4, human liver microsomes, 1.5 μM lopinavir, 8 min at 37° C., test concentrations 0.098-100 nM, read-out: 3A4(LPV)
Description: Determination of IC50 vs CYP3A by Measurement of Inhibition of Lopinavir Metabolism
This assay was performed in a standard 96-well plate design. IC50 values were calculated from the percent inhibition observed for each test compound at 6 concentrations (for example, 0.098, 0.391, 1.56, 6.25, 25 and 100 nM). The incubation substrate mix contains 1.5 μM lopinavir, 0.01 mg/mL protein human liver microsomes (BD Gentest), 1 mM NAPDH, 3.3 mM MgCl2 and 100 mM potassium phosphate buffer (pH 7.4). The production of the sum of three hydroxylated metabolites (M2: 6-hydroxy lopinavir, M3: 4-hydroxy lopinavir, M4: 4-hydroxy lopinavir (epimer of M3), Kumar et al., 1999) was determined after incubation for 8 min at 37° C. Quantitation of the metabolite peak area ratio against an internal standard (tolbutamide) was determined by LC/MS/MS analysis following acetonitrile treatment of the incubations.
(§1) Samples were analyzed in the MRM mode with a SCIEX API-4000 mass spectrometer (Applied Biosystems, Foster City, Calif.), with a Shimadzu LC-20 AD pump (Shimadzu corporation, Kyoto, JP) and a CTC PAL autosampler (Agilent Technologies, Switzerland). A Phenomenex, Luna, 5 μm, 100 A, 2.00×30 mm HPLC column was used for the separation. The mobile phases were: (A) 0.1% formic acid in water and (B) 0.1% formic acid in acetonitrile. The binary gradient was as follows.
(§2) The peak area ratio of the analyte to the internal standard was used to quantify the metabolite. The values of peak area ratios in the presence of test compound were compared to those of maximum or minimum controls and were expressed as % inhibition by interpolating between the maximum and minimum peak area ratios. Incubations with no inhibitor were defined as the maxima and with 5 μM ketoconazole were defined as the minima
(§3) The following equation was used to calculate the % inhibition:
(§4) [1−[(X−Low control)/(High control−Low control)]]*100
(§5) For the IC50 calculation, SigmaPlot was used to plot the mean % inhibition versus the test compound concentrations and for non-linear regression analysis of the data. Depending on the range of data points defining the inhibition curve, the data may have been fit to the 4-parameter logistic equation.

CYP1A2 = biological target: T1, CYP1A2 (Homo sapiens, UniProt P05177); test: Cocktail CYP assay, phenacetin O-deethylation; assay type: in vitro ADME; settings: human liver microsomes, 10 μM phenacetin; test concentrations up to 10 μM
T1 construct: 0.1 mg/mL protein human liver microsomes (BD Gentest); tissue BD Gentest; host or cells: human liver microsomes
T1 sequence (P05177 1-516): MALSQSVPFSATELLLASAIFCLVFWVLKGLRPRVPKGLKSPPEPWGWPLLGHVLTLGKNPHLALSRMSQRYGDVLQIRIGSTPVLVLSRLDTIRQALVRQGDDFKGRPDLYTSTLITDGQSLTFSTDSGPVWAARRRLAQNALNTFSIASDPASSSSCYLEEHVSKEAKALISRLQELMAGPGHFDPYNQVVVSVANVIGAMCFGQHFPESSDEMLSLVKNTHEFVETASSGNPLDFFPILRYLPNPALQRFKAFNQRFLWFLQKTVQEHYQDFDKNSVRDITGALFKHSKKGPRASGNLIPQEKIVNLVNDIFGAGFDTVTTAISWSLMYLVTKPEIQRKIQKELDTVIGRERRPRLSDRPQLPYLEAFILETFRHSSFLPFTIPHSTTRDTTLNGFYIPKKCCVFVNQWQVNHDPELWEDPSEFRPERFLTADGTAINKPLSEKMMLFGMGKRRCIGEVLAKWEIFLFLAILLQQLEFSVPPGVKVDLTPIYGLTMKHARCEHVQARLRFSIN
Description: (§6) Determination of IC50 in a Cocktail Assay for CYPs 1A2, 2C9, 2C19, 2D6 and 3A4
(§7) This assay was performed in a standard 96-well plate design. IC50 values were calculated from the percent inhibition observed for each test compound at 6 concentrations (for example, 0.0032, 0.016, 0.08, 0.4, 2 and 10 μM). The incubation substrate mix contains 10 μM phenacetin (1A2), 5 μM diclofenac (2C9), 30 μM mephenyloin (2C19), 5 μM dextromethorphan (2D6) and 2 μM midazolam (3A4), 0.1 mg/mL protein human liver microsomes (BD Gentest), 1 mM NAPDH, 3.3 mM MgCl2 and 100 mM potassium phosphate buffer (pH 7.4). The production of the metabolite of each probe substrate was determined after incubation for 10 min at 37° C. Quantitation of the metabolite peak area ratio against an internal standard (tolbutamide) was determined by LC/MS/MS analysis following acetonitrile treatment of the incubations.
as §1, with “[…],” for “μm,”
as §2, with “maxima.” for “maxima and with 5 μM ketoconazole were defined as the minima”
as §3, §4, §5

CYP2C9 = biological target: T2, CYP2C9 (Homo sapiens, UniProt P11712); test: Cocktail CYP assay, diclofenac 4'-hydroxylation; assay type: in vitro ADME; settings: human liver microsomes, 5 μM diclofenac; test concentrations up to 10 μM
T2 construct: 0.1 mg/mL protein human liver microsomes (BD Gentest); tissue BD Gentest; host or cells: human liver microsomes
Description: as §6, §7
as §1, with “[…],” for “μm,”
as §2, with “maxima.” for “maxima and with 5 μM ketoconazole were defined as the minima”
as §3, §4, §5

CYP2C19 = biological target: T3, CYP2C19 (Homo sapiens, UniProt P33261); test: Cocktail CYP assay, mephenytoin 4'-hydroxylation; assay type: in vitro ADME; settings: human liver microsomes, 30 μM mephenytoin; test concentrations up to 10 μM
T3 construct: 0.1 mg/mL protein human liver microsomes (BD Gentest); tissue BD Gentest; host or cells: human liver microsomes
Description: as §6, §7
as §1, with “[…],” for “μm,”
as §2, with “maxima.” for “maxima and with 5 μM ketoconazole were defined as the minima”
as §3, §4, §5

CYP2D6 = biological target: T4, CYP2D6 (Homo sapiens, UniProt P10635); test: Cocktail CYP assay, dextromethorphan O-demethylation; assay type: in vitro ADME; settings: human liver microsomes, 5 μM dextromethorphan; test concentrations up to 10 μM
T4 construct: 0.1 mg/mL protein human liver microsomes (BD Gentest); tissue BD Gentest; host or cells: human liver microsomes
Description: as §6, §7
as §1, with “[…],” for “μm,”
as §2, with “maxima.” for “maxima and with 5 μM ketoconazole were defined as the minima”
as §3, §4, §5

human CYP11B1 = biological target: T5, human CYP11B1 (Homo sapiens, UniProt P15538); test: IC50 vs CYP11B1 by cortisol synthesis in V79 cells; assay type: cell-based; settings: V79 cells expressing human CYP11B1, 1500 nM RSS, cortisol HTRF; test concentrations 0.5-10000 nM
T5 construct: expressed in transfected cells
T5 sequence (P15538 25-503): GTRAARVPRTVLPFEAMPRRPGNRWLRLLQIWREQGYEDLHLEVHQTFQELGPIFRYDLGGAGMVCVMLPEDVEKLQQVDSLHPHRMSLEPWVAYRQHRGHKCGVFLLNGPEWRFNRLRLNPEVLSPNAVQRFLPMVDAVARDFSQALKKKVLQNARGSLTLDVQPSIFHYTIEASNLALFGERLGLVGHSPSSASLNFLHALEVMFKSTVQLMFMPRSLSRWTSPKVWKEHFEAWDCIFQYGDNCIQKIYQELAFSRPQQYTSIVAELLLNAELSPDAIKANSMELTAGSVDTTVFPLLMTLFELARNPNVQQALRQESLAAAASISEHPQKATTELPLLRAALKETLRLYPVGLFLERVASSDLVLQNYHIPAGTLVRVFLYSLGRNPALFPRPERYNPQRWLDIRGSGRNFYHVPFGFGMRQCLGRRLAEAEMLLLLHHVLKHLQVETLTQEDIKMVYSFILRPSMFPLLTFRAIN
Description: (§8) Determination of IC50 vs CYP11B1/CYP11B2 by Measurement of Cortisol/Aldosterone Synthesis
(§9) This assay was performed in a standard 384-well plate design using cultured V79 cells stably expressing human CYP11B1 or human CYP11B2. Test compounds at 10 concentrations (for example, 10000, 3333.3, 1111.1, 370.4, 123.5, 41.2, 13.7, 4.6, 1.5 and 0.5 nM) were added in 384-well plate after the cell-seeding procedure. The incubation substrate contains 1500 nM RSS for CYP11B1 assay/750 nM DOC for CYP11B2 assay. The
(§10) Cortisol/Aldosterone production of cell culture supernatant was determined by Cortisol/Aldosterone HTRF kit after for about 15 hours incubation at RT (protect from light). IC50 values were calculated from the percent inhibition observed for each test compound at 10 concentrations.
(§11) The assay plate was read using Envision (Perkin Elmer, Waltham, Mass.) at 665 nm and 590 nm (using Filter Barcode of 217#, 205#; Mirror Barcode of 446#).
(§12) Data are analyzed using Assay Data Analyzer. All ratio data (665 nm/590 nm) are back calculated according to the standard curve, resulting in Cortisol/Aldosterone concentrations. IC50 values are reported as the Inflection Point (IP) of a four parameter fit of the titration data.
as §3
(§13) % Activity=100×{1−(Sample_back calculated Cortisol/Aldosterone concentration−LC_back calculated Cortisol/Aldosterone concentration)/(HC_back calculated Cortisol/Aldosterone concentration−LC_back calculated Cortisol/Aldosterone concentration)}

human CYP11B2 = biological target: T6, human CYP11B2 (Homo sapiens, UniProt P19099); test: IC50 vs CYP11B2 by aldosterone synthesis in V79 cells; assay type: cell-based; settings: V79 cells expressing human CYP11B2, 750 nM DOC, aldosterone HTRF; test concentrations 0.5-10000 nM
T6 construct: expressed in transfected cells
T6 sequence (P19099 25-503): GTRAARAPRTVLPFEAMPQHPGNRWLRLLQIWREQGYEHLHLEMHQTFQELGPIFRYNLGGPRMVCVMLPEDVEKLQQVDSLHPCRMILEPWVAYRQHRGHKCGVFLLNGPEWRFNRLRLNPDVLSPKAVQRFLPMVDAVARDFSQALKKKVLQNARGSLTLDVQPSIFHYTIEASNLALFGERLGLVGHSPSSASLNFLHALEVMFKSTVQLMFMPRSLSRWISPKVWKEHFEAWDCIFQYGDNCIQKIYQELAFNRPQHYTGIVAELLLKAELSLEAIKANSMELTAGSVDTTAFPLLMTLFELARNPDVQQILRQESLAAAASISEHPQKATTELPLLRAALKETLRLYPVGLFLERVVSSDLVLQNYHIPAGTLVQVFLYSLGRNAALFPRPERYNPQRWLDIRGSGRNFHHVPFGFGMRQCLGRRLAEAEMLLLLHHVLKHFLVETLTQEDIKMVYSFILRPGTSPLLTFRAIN
Description: as §8, §9, §10, §11, §12, §3, §13

Chain of CYP3A4 (P08684 2-503): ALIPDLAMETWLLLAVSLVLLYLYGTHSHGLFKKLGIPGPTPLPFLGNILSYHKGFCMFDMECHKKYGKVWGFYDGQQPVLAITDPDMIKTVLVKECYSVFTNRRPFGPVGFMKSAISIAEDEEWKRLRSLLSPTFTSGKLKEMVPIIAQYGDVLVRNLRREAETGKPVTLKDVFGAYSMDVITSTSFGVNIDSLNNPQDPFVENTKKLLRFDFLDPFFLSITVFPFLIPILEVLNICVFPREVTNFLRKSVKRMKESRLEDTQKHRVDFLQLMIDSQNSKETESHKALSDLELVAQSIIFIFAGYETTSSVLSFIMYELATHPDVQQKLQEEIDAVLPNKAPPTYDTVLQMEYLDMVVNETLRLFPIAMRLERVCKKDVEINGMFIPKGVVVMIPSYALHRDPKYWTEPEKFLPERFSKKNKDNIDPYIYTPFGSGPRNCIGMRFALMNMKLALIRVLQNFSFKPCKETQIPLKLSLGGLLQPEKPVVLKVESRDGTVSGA
T2 sequence (P11712 whole entry): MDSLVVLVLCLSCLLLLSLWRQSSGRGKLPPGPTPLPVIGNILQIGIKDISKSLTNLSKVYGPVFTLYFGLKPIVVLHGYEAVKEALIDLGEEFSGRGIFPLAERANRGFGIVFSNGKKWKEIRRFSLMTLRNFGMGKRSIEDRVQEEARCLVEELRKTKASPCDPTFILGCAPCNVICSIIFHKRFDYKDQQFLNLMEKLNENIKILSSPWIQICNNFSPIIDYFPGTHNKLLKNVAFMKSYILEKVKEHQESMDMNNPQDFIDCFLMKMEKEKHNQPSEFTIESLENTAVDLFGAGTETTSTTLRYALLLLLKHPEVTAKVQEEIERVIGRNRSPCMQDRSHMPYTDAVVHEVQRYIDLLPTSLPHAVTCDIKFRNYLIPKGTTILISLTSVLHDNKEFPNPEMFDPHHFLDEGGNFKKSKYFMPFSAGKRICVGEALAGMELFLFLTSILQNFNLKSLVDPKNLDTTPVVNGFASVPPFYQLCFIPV
T4 sequence (P10635 whole entry): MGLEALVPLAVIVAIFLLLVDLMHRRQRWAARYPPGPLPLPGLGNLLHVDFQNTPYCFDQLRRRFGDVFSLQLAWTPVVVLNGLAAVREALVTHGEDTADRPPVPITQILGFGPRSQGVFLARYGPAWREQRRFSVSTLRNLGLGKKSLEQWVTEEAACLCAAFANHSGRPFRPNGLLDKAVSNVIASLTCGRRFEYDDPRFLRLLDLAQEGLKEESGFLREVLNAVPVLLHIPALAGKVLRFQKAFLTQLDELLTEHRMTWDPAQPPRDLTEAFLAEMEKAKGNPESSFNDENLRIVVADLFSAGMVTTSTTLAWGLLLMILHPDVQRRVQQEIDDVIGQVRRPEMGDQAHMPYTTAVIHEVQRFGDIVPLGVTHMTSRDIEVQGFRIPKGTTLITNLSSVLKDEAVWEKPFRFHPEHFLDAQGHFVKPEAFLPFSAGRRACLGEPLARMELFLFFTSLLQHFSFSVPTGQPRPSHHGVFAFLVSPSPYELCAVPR
T3 sequence (P33261 whole entry): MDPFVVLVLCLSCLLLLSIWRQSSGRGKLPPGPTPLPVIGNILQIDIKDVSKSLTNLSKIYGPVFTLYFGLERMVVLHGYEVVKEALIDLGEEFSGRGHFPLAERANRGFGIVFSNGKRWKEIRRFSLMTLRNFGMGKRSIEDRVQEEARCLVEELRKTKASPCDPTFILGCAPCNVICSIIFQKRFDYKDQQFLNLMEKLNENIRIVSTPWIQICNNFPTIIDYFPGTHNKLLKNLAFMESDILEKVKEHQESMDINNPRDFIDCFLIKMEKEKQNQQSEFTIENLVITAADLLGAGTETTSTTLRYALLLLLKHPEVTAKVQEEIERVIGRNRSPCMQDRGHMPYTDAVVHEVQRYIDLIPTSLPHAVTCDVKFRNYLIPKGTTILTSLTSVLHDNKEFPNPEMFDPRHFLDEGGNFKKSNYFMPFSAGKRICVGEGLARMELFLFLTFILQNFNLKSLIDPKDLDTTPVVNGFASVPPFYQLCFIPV

| Structure (SMILES) | IC50 at 8 min (CYP3A4) | IC50 (CYP1A2) | IC50 (CYP2C9) | IC50 (CYP2C19) | IC50 (CYP2D6) | IC50 (human CYP11B1) | IC50 (human CYP11B2) |
| --- | --- | --- | --- | --- | --- | --- | --- |
| C[C@H](c1ccc(F)cc1)n1cncc1CC1(C#N)CCN(S(=O)(=O)c2cnc(N3CCN(C)CC3)s2)CC1 [Compound 48] | 0.0094 µM | > 10 µM | > 10 µM | 8.06 µM | 2.85 µM |  |  |
| C[C@H](c1ccc(F)cc1)n1cncc1CN1CCN(S(=O)(=O)c2cnc(N3CC[C@@H]4OCCN[C@H]4C3)s2)CC1 [Compound 14] |  | > 10 µM | 9.76 µM | > 10 µM |  | 1.05 µM |  |
| C[C@H](c1ccc(F)cc1)n1cncc1CC1CCN(S(=O)(=O)c2cnc(N3CCN(C)CC3)s2)CC1 [Compound 44] | 0.0011 µM | > 10 µM | 3.57 µM | 8.39 µM | 2.41 µM |  |  |
| C[C@H](c1ccc(F)cc1)n1cncc1C1CC12CCN(S(=O)(=O)c1cnc(N3CCN(C)CC3)s1)CC2 (single isomer, unassigned) [Compound 43a] |  | > 10 µM | > 10 µM | > 10 µM | 2.9 µM |  |  |
| C[C@H](c1ccc(F)cc1)n1cncc1CN1CCN(S(=O)(=O)c2cnc(N3CC[C@@H]4OCCN[C@H]4C3)s2)CC1 [Compound 13] | 0.0014 µM | > 10 µM | 7.41 µM | > 10 µM |  | 1.56 µM |  |
| C[C@H](c1ccc(F)cc1)n1cncc1C1CN(C)CC2CN(S(=O)(=O)c3cnc(Nc4ccccn4)s3)CCN21 (stereo partly drawn) [Compound 41] | 0.0021 µM | > 10 µM | 2.26 µM | 4.95 µM | 2.3 µM |  |  |
| C[C@H](c1ccc(F)cc1)n1cncc1CN1CCN(S(=O)(=O)c2cnc(N3CCC(S(C)(=O)=O)C3)s2)CC1 (stereo partly drawn) [Compound 7] |  | > 10 µM | 3.39 µM | > 10 µM | > 10 µM | 4.09 µM |  |
| C[C@H](c1ccc(F)cc1)n1cncc1CC1(CO)CCN(S(=O)(=O)c2cnc(N3CCN(C)CC3)s2)CC1 [Compound 47] | 0.013 µM | > 10 µM | > 10 µM | > 10 µM | 5.84 µM |  |  |
| COC(c1cncn1[C@H](C)c1ccc(F)cc1)C1CCN(S(=O)(=O)c2cnc(Nc3ccc(C(F)(F)F)cn3)s2)CC1 (single isomer, unassigned) [Compound 45b] |  | > 10 µM | 1.45 µM | 4.49 µM | 7.85 µM |  |  |
| COC(c1cncn1[C@H](C)c1ccc(F)cc1)C1CCN(S(=O)(=O)c2cnc(Nc3ccc(C(F)(F)F)cn3)s2)CC1 (single isomer, unassigned) [Compound 45a] | < 0.00098 µM | > 10 µM | 0.336 µM | 1.13 µM | 5.68 µM |  |  |
| C[C@H](c1ccc(F)cc1)n1cncc1CN1CCN(S(=O)(=O)c2cnc(N3CC[C@@H](N)[C@H](F)C3)s2)CC1 [Compound 12] |  | > 10 µM | 1.75 µM | > 10 µM | 2.85 µM | 1.46 µM | 1.69 µM |
| C[C@H](c1ccc(F)cc1)n1cncc1C1CC12CCN(S(=O)(=O)c1cnc(N3CCN(C)CC3)s1)CC2 (single isomer, unassigned) [Compound 43b] |  | > 10 µM | > 10 µM | 9.2 µM | 3.6 µM |  |  |
